The values below come from ChEMBL document CHEMBL1157056, “Synthesis and anti-inflammatory evaluation of some condensed [4-(3,4-dimethylphenyl)-1(2H)-oxo-phthalazin-2-yl]acetic acid hydrazide” (Eur J Med Chem, 2010).

SMILES strings stand for the structures. Activity calls are given as the source filed them. No cut-off for these calls is given here.

This test relates to Rattus norvegicus. The test is described as follows: Antiinflammatory activity in rat at 20 mg/kg, ip after 10 days by sponge implantation method. Set-up: dose 20 mg/kg. The class given is functional, organism-based.
As to `Cc1ccc(-c2nn(CC(=O)NNC(=S)NCc3ccccc3)c(=O)c3ccccc23)cc1C`, the outcome was Active. In the case of `CCO/C=N/NC(=O)Cn1nc(-c2ccc(C)c(C)c2)c2ccccc2c1=O`, the outcome was Active. On to `Cc1ccc(-c2nn(Cc3n[nH]c(=S)o3)c(=O)c3ccccc23)cc1C`, for which the outcome was Active. On to `Cc1ccc(-c2nn(CC(=O)N/N=C/NN)c(=O)c3ccccc23)cc1C`, for which the result was Active. For `CC1=NN(C(=O)Cn2nc(-c3ccc(C)c(C)c3)c3ccccc3c2=O)C(=O)C1`, the outcome was Active.
